Results on six compounds are retold here after PMC6123649, “Structural basis for specific inhibition of the highly sensitive ShHTL7 receptor” (EMBO Reports, 2018).

For experiment [1], the target named is T1, ShHTL7 (Striga hermonthica, UniProt A0A0M3PNA2).
T1 sequence (A0A0M3PNA2 1-271): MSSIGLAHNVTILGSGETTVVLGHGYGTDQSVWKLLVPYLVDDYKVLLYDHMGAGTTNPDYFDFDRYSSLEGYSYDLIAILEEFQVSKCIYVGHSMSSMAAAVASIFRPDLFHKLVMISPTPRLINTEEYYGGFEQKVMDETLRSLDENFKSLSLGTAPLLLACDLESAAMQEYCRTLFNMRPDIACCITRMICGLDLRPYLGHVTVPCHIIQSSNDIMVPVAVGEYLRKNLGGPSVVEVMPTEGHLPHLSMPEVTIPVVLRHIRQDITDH
The experiment in a line: Yoshimulactone Green (YLG) hydrolysis competition assay. The class given is biochemical. The method, then:
In vitro YLG hydrolysis assays were performed using 3 μM of ShHTL7, ShHTL7‐L143Y, AtD14, and OsD14 in a reaction buffer (1× PBS) with 0.1% dimethyl sulfoxide (DMSO) in a 100 μl volume on a 96‐well black plate (Greiner). The fluorescent intensity was measured by SpectraMax i3 (Molecular Devices) using an excitation wavelength of 480 nm and a detection wavelength of 520 nm. […] Protein‐Triton mixes were pre‐incubated for 30 min. 1 μM YLG (Tokyo Chemical Industry Co. Ltd.) was then added, and the assay was incubated for 60 min. The change in fluorescence observed over the course of 1 h incubation of YLG in buffer without protein was subtracted from the data collected in the presence of protein. The resulting relative fluorescence values were analyzed. The inhibitory curves and IC50 values were plotted using GraphPad (Prism 6) four‐parameter logistic curve. The rate of YLG hydrolysis by ShHTL7 was recorded following the above method at 10‐min interval for 2 h.

For experiment [2], the target named is T1, ShHTL7. As to the kind of experiment: Microscale thermophoresis (MST). The class given is binding. The method, then: ShHTL7 was N‐terminally labeled with RED dye (NT‐647) following the protocol from manufacturer (NanoTemper, Germany). Free dye was removed by passing through the Sephadex G‐25 column. Serial dilutions of unlabeled Triton X‐100, GR24, and PAA ranging from 25 μM to sub‐nanomolar range were mixed with 20 nM of NT‐647‐labeled ShHTL7 in buffer (50 mM Tris–HCl, 150 mM NaCl, 0.005% Tween‐20) and incubated for 2.5 h in the studies for Triton X‐100 and PAA except with GR24, and it was recorded after 10‐min incubation. About 10 μl of sample was loaded into premium monolith NT capillaries, and assays were carried out in a NanoTemper Monolith NT.015T. The red fluorescence was excited by a light‐emitting diode, and its emission was recorded on the focused part of capillaries. Using laser diode, a microscopic temperature gradient was created at the same location and the fluorescence depletion was measured. K d values were determined by plotting the concentrations of unlabeled ligands against the changes in fluorescent thermophoresis signal, and the data were analyzed using the NanoTemper analysis software.
Background: In MST a laser heats a spot of the sample, and binding alters the fluorescence response.

Experiment [3] concerns the target T1, ShHTL7. Details: method as in PMID 26293962, PMID 26450211. The conditions noted are these: read-out: IC50 for GR24, in vitro YLG assay; recombinant ShHTL7; cited from earlier work.
The subject of another experiment is ShHTL6. On the set-up: method as in PMID 26293962, PMID 26450211. The conditions noted are these: recombinant ShHTL6; read-out: IC50 for GR24, in vitro YLG assay; cited from earlier work.
For the next experiment, the system named is ShHTL4‐6. On the set-up: method as in PMID 26293962. The conditions noted are these: transgenic A. thaliana, read-out: EC50 values for GR24; cited from earlier work.
Experiment [4] concerns the target T1, ShHTL7. The experiment in a line: Drug affinity response target stability (DARTS) assay. The class given is binding. Conditions: 100 μM compound; proteinase K 10 μg/ml. The method, then:
ShHTL7 and mutants were diluted to a concentration of 30 μM in 50 mM Tris–HCl pH 7.5, 150 mM NaCl, 0.005% Tween‐20, incubated with GR24 at final concentration of 100 μM for 5 min, and separately with 100 μM Triton X‐100 for 2 h. One sample was kept aside for use as an undigested control. Proteinase K (Hampton Research) was then added to ShHTL7 protein to a final protease concentration of 10 μg/ml. Reactions were incubated at room temperature for 5 min and then SDS–PAGE loading buffer was added to stop the reaction, and the samples were immediately boiled for 3 min. Equal amounts of each sample, corresponding to 10 μg of protein, were run on a 4–20% gradient polyacrylamide gel (Bio‐Rad) and analyzed by Coomassie Blue staining 32.

Experiment [5] has as its target T1, ShHTL7. Conditions: cited from earlier work.
Experiment [6] has as its target T1, ShHTL7. As to the kind of experiment: Differential static light scattering (DSLS), aggregation temperature. The class given is binding. The conditions noted are these: 10 μM protein, varying compound concentrations. The method, then:
The specific aggregation temperature, T agg, at which ShHTL7, ShHTL7L143Y, AtD14, and OsD14 aggregated in the presence or absence of Triton X‐100, GR24, and PAA was measured using DSLS on the Stargazer system (Harbinger Biotechnology and Engineering Corporation, Markham, Canada). Protein samples at a concentration of 10 μM were overlaid with mineral oil in a clear bottom 384‐well black plate (Corning) and heated from 20 to 95°C at 1°C/min; light scattering was detected by a CCD camera every 0.5°C in the presence or absence of varying concentrations of Triton X‐100, GR24, and PAA yielding the difference in aggregation temperature at a particular concentration from apoproteins (ΔT agg). Data were normalized, and ΔT agg plotted against the Triton X‐100, GR24, and PAA concentration. Resulting data were plotted to determine the change in T agg of all proteins when bound to Triton X‐100, GR24, and PAA using GraphPad (Prism 6).

Experiment [7] has as its target T1, ShHTL7. The experiment in a line: Intrinsic tryptophan fluorescence assay. The class given is binding.
The next experiment has as its system Striga hermonthica seeds. The experiment in a line: Striga hermonthica germination bioassay. The class given is in vivo. The conditions noted are these: for effect on GR24-induced Striga germination: n‐dodecyl‐β‐D‐maltoside at 15 and 1.5 µM, same conditions as Triton. The method, then:
Striga hermonthica seeds were collected from Sorghum bicolor field in Sudan. For germination bioassays, Striga seeds were first sterilized and pre‐conditioned as described before 31. […] Triton X‐100/GR24 mixtures were applied (50 μl per disk) in four replicates. Corresponding volumes of GR24 and sterile MiliQ water were included as positive and negative control, respectively. The petri dishes were sealed with parafilm, enfolded with aluminum foil, and incubated for 48 h at 30°C. The germinated (seeds with radicle emerging through the seed coat) and non‐germinated Striga seeds were recorded under a binocular, and germination percentage was calculated.

Where two headings read alike, the source gives them in different places.

As for `CC(C)(C)CC(C)(C)c1ccc(OCCO)cc1` [4-ter-octylphenol Monoethoxylate, 4‐ter‐octylphenol monoethoxylate], at ShHTL7 [1], the IC50 (commonly the point on the concentration scale where inhibition reaches its midpoint) stood at 9240 ± 3170 nM.
Same read-out and setting: then `CC(C)(C)CC(C)(C)c1ccc(OCCOCCO)cc1` [4-ter-octylphenol diethoxylate, 4‐ter‐octylphenol diethoxylate], with 7480 ± 2130 nM.
In the case of `CC1=CC(O/C=C2/C(=O)OC3c4ccccc4CC23)OC1=O` (stereo not shown) [GR24], the values for the IC50 on ShHTL7 [1], at ShHTL7 [3] and in the experiment with ShHTL6 were 870 ± 60 nM, ~500 nM and ~500 nM, respectively. Also, the figures for the Kd on ShHTL7 [2] and on ShHTL7 [7] were 920 ± 10 nM and 390 ± 50 nM, respectively. Moreover, the EC50 (commonly the midpoint of the concentration-response curve) in the experiment with ShHTL4‐6 is 10 to 300 nM; on ShHTL7 [5] (read-out: EC50 (vs. GR24), seed germination in transgenic Arabidopsis lines expressing ShHTL7, ref Toh et al., 2015 (ref. 22)), 0.0175 nM. In addition, at ShHTL7 [4], the “protection of ShHTL7 from digestion by proteinase K” value is given as “efficiently protected”. At ShHTL7 [5], the “EC50 of GR24 for ShHTL7 in transgenic Arabidopsis” value is “picomolar range”. The “effect on ShHTL7 aggregation temperature (T agg)” value (shortened to “effect … (T agg)”) on ShHTL7 [6] is “destabilized”.
On ShHTL7 [1], `CC(C)(C)CC(C)(C)c1ccc(OCC(=O)O)cc1` [PAA, 2‐[4‐(2,4,4‐trimethylpentan‐2‐yl)phenoxy]acetic acid] yielded an IC50 of 1480 nM. For the same compound, on ShHTL7 [2], the Kd (usually a measure of binding affinity in units of concentration) was 1700 ± 240 nM. For the same compound, in the experiment with Striga hermonthica seeds (Striga hermonthica, 48 h, read-out: inhibition of S. hermonthica germination), the inhibition (usually the relative decrease from the control value, in per cent) at 10 µM is ≤ 40%. Also, the “effect … (T agg)” value on ShHTL7 [6] is reported as “stabilized”.
For the compound `CCOC(=O)c1ccccc1-c1c2ccc(=O)cc-2oc2cc(OC3C=C(C)C(=O)O3)ccc12` (stereo not shown) [YLG, reference compound], at ShHTL7 [1] (3 μM ShHTL7, 1 μM YLG, absence of Triton), the “time for hydrolysis of YLG by ShHTL7” value was ≤ 50 min.
In the case of `CCCCCCCCCCCCO[C@@H]1O[C@H](CO)[C@@H](O[C@H]2O[C@H](CO)[C@@H](O)[C@H](O)[C@H]2O)[C@H](O)[C@H]1O` [n‐dodecyl‐β‐D‐maltoside, reference compound], the “binding to ShHTL7 (MST)” value on ShHTL7 [2] (authors' reply in peer review file) is reported as “does neither bind”. The “effect on GR24-induced Striga germination” value in the experiment with Striga hermonthica seeds is “did not affect germination”; with Striga hermonthica seeds (listed as nDM), “does not block germination”. The “effect … (T agg)” value on ShHTL7 [6] is given as “did not increase”; at ShHTL7 [6] (listed as nDM) it was “nor increase Tagg”.
